The numbers were not newly measured in US9199026B2, “Modular extracorporeal systems and methods for treating blood-borne diseases” (SOMERSET GROUP ENTERPRISES, INC., priority 2011, dated 2015), which cites them from elsewhere.

Where two headings read alike, the source gives them in different places.

For one data set, the system named is bacteria. Conditions: for Spectrum: first line of the cell pair 'Spectrum, activity'; for activity (bactericidal / static): second line of the cell pair 'Spectrum.
Test in data set [1]: not given
This is another data set of the same source.

Test in data set [2]: not given
This is another data set of the same source.

As for `NCC[C@H](O)C(=O)N[C@@H]1C[C@H](N)[C@@H](O[C@H]2O[C@H](CN)[C@@H](O)[C@H](O)[C@H]2O)[C@H](O)[C@H]1O[C@H]1O[C@H](CO)[C@@H](O)[C@H](N)[C@H]1O` [Amikacin], the pKa (no group stated) was 12.7. In the data set on bacteria, the Spectrum result is listed as “Gram negative,” and the “activity (bactericidal / static)” value is recorded as “bactericidal”.

In the case of `CC[C@H]1OC(=O)[C@H](C)[C@@H](O[C@H]2C[C@@](C)(OC)[C@@H](O)[C@H](C)O2)[C@H](C)[C@@H](O[C@@H]2O[C@H](C)C[C@H](N(C)C)[C@H]2O)[C@](C)(O)C[C@@H](C)CN(C)[C@H](C)[C@@H](O)[C@]1(C)O` [Azithromycin], the pKa (no group stated) is 8.1.

Consider `CO/N=C(\C(=O)N[C@@H]1C(=O)N2C(C(=O)[O-])=C(C[N+]3(C)CCCC3)CS[C@H]12)c1csc(N)n1` [Cefipime], for which the “Percent removed By CAPD” value in data set [1] (CAPD) was 26%. In addition, the “Percent removed By hemodialysis” value in data set [2] (hemodialysis) is recorded as 40-70%.

`CO/N=C(\C(=O)N[C@@H]1C(=O)N2C(C(=O)O)=C(CSc3nnnn3C)CS[C@H]12)c1csc(N)n1` [Cefmenoxime]: the “Percent removed By CAPD” value in data set [1] (in vivo) is reported as “Negligible (<10%)”. The “Percent removed By hemodialysis” value in data set [2] (in vivo) is recorded as 16-51%.

Turning to `CO/N=C(\C(=O)N[C@@H]1C(=O)N2C(C(=O)O)=C(CSc3nc(C)c(CC(=O)O)s3)CS[C@H]12)c1csc(N)n1` [Cefodizime], the “Percent removed By CAPD” value in data set [1] (in vivo) is on record as “Negligible (15%)”. For the same compound, the “Percent removed By hemodialysis” value in data set [2] (in vivo) is on record as 50%.

Regarding `NCc1ccccc1CC(=O)N[C@@H]1C(=O)N2C(C(=O)O)=C(CSc3nnnn3CC(=O)O)CS[C@H]12` [Ceforanide], the “Percent removed By CAPD” value in data set [1] (in vivo) was “Negligible”. Moreover, in data set [2] (in vivo), the “Percent removed By hemodialysis” value was 20-50%.

As for `CO[C@@]1(NC(=O)Cc2cccs2)C(=O)N2C(C(=O)O)=C(COC(N)=O)CS[C@@H]21` [Cefoxitin], the “Percent removed By CAPD” value in data set [1] (in vivo) was “Negligible”. For the same compound, the “Percent removed By hemodialysis” value in data set [2] (in vivo) is 50%.

As for `CO/N=C(\C(=O)N[C@@H]1C(=O)N2C(C(=O)[O-])=C(C[n+]3cccc4c3CCC4)CS[C@H]12)c1csc(N)n1` [Cefpirome], the “Percent removed By CAPD” value in data set [1] (in vivo) was “Negligible (12%)”. Further, in data set [2] (in vivo), the “Percent removed By hemodialysis” value is reported as 32-48%.

In the case of `CC(C)(O/N=C(\C(=O)N[C@@H]1C(=O)N2C(C(=O)[O-])=C(C[n+]3ccccc3)CS[C@H]12)c1csc(N)n1)C(=O)O` [Ceftazidime], the “Percent removed By CAPD” value in data set [1] (in vivo) is reported as “Negligible”. Also, the “Percent removed By hemodialysis” value in data set [2] (in vivo) is on record as 50%.

Regarding `CO/N=C(\C(=O)N[C@@H]1C(=O)N2C(C(=O)O)=CCS[C@H]12)c1csc(N)n1` [Ceftizoxime], the “Percent removed By CAPD” value in data set [1] (in vivo) is listed as “Negligible (16%)”. Besides, the “Percent removed By hemodialysis” value in data set [2] (in vivo) was 50%.

For the compound `CO/N=C(\C(=O)N[C@@H]1C(=O)N2C(C(=O)O)=C(CSc3nc(=O)c(=O)[nH]n3C)CS[C@H]12)c1csc(N)n1` [Ceftriaxone sodium], the pKa ((NH2)) was 3.2.

`CO/N=C(\C(=O)N[C@@H]1C(=O)N2C(C(=O)O)=C(CSc3nc(=O)c(=O)[nH]n3C)CS[C@H]12)c1csc(N)n1` [Ceftriaxone]: the “Percent removed By CAPD” value in data set [1] (in vivo) is “Negligible (4.5%)”. Moreover, in data set [2] (in vivo), the “Percent removed By hemodialysis” value is recorded as 40%.

As to `CO/N=C(\C(=O)N[C@@H]1C(=O)N2C(C(=O)O)=C(COC(N)=O)CS[C@H]12)c1ccco1` [Cefuroxime sodium], under “no group stated”, the pKa is 2.5.

For `CC1=C(C(=O)O)N2C(=O)[C@@H](NC(=O)[C@H](N)c3ccccc3)[C@H]2SC1` [Cephalexin], in data set [1] (in vivo), the “Percent removed By CAPD” value is 30%. In data set [2] (in vivo), the “Percent removed By hemodialysis” value is 50-75%.

Take `Nc1ccn(C[C@@H](CO)OCP(=O)(O)O)c(=O)n1` [Cidofovir]: the “Percent removed By CAPD” value in data set [1] (CAPD) was “Negligible”. The “Percent removed By hemodialysis” value in data set [2] (hemodialysis) is on record as 50%.

In the case of `O=C(O)c1cn(C2CC2)c2cc(N3CCNCC3)c(F)cc2c1=O` [Ciprofloxalin], the “activity (bactericidal / static)” value with bacteria is listed as “bactericidal”.

`CCCCCCCCCC(=O)N[C@@H](Cc1c[nH]c2ccccc12)C(=O)N[C@H](CC(N)=O)C(=O)N[C@@H](CC(=O)O)C(=O)N[C@@H]1C(=O)NCC(=O)N[C@@H](CCCN)C(=O)N[C@@H](CC(=O)O)C(=O)N[C@H](C)C(=O)N[C@@H](CC(=O)O)C(=O)NCC(=O)N[C@H](CO)C(=O)N[C@@H]([C@H](C)CC(=O)O)C(=O)N[C@@H](CC(=O)c2ccccc2N)C(=O)O[C@@H]1C` [Daptomycin]: in the data set on bacteria, the Spectrum result was “Gram positive,” and the “activity (bactericidal / static)” value was “bactericidal”.

For `C[C@@H](O)[C@H]1C(=O)N2C(C(=O)O)=C(SCCN=CN)C[C@H]12` [Imipenem], in data set [1] (in vivo), the “Percent removed By CAPD” value is reported as “Negligible”. Also, in data set [2] (in vivo), the “Percent removed By hemodialysis” value is 80-90%.

`CC1(C)S[C@@H]2[C@H](NC(=O)[C@H](NC(=O)N3CCN(S(C)(=O)=O)C3=O)c3ccccc3)C(=O)N2[C@H]1C(=O)O` [Mezlocillin]: the “Percent removed By CAPD” value in data set [1] (in vivo) was 24%. For the same compound, the “Percent removed By hemodialysis” value in data set [2] (in vivo) is 20-25%.

Regarding `CO[C@@]1(NC(=O)C(C(=O)O)c2ccc(O)cc2)C(=O)N2C(C(=O)O)=C(CSc3nnnn3C)CO[C@@H]21` (some centres unmarked) [Moxalactam], the “Percent removed By CAPD” value in data set [1] (in vivo) was “Negligible (15-20%)”. For the same compound, the “Percent removed By hemodialysis” value in data set [2] (in vivo) is recorded as 30-50%.

On to `CC1(C)S[C@@H]2[C@H](NC(=O)Cc3ccccc3)C(=O)N2[C@H]1C(=O)O` [Penicillin G], for which the pKa (no group stated) is reported as 2.8.

`CO[C@@]1(NC(=O)C(C(=O)O)c2ccsc2)C(=O)N2[C@@H](C(=O)O)C(C)(C)S[C@@H]21` (some centres unmarked) [Temocillin]: the “Percent removed By CAPD” value in data set [1] (CAPD) is recorded as “Negligible (6%)”. For the same compound, the “Percent removed By hemodialysis” value in data set [2] (hemodialysis) is 50%.

As to `CN(C)c1cc(NC(=O)CNC(C)(C)C)c(O)c2c1C[C@H]1C[C@H]3[C@H](N(C)C)C(O)=C(C(N)=O)C(=O)[C@@]3(O)C(O)=C1C2=O` [Tigecycline], the pKa (no group stated) was 4.4. Also, in the data set with bacteria, the Spectrum result is “Broad,” and the “activity (bactericidal / static)” value is reported as “static”.

As to `NC[C@H]1O[C@H](O[C@H]2[C@H](O)[C@@H](O[C@H]3O[C@H](CO)[C@@H](O)[C@H](N)[C@H]3O)[C@H](N)C[C@@H]2N)[C@H](N)C[C@@H]1O` [Tobramycin], in the data set with bacteria, the Spectrum result was “Gram negative,” and the “activity (bactericidal / static)” value is “bactericidal”.

With `COc1cc(Cc2cnc(N)nc2N)cc(OC)c1OC` [Trimethoprim], in data set [1] (in vivo), the “Percent removed By CAPD” value is “Negligible (7%)”. Also, the “Percent removed By hemodialysis” value in data set [2] (in vivo) is 50%.

As to `N[C@@H]1[C@H]2CN(c3nc4c(cc3F)c(=O)c(C(=O)O)cn4-c3ccc(F)cc3F)C[C@@H]12` [Trovafloxacin], in the data set on bacteria, the Spectrum result was “Broad,” and the “activity (bactericidal / static)” value is “bactericidal”.

For Colistin, the pKa (no group stated) was 12.1. Moreover, in the data set with bacteria, the Spectrum entry is reported as “Gram negative,” and the “activity (bactericidal / static)” value was “bactericidal”.

For the compound Gentamycin, in the data set with bacteria, the Spectrum result is reported as “Gram negative,” and the “activity (bactericidal / static)” value was “bactericidal”.

Consider Polymixin B, for which, in the data set with bacteria, the Spectrum entry is reported as “G−,” and the “activity (bactericidal / static)” value was “bactericidal”.

As usually defined, the pKa is the pH at which an ionisable group is half protonated.
